Measured values as given in the NIST ThermoML archive (doi:10.1007/s10765-012-1370-2).

Experiment: xn = mol fraction of the nth substance listed
Conditions: Liquid, Bellows volumetry

CCC [propane] + O=C=O
mass density [kg/m3]
Conditions	280 K	320 K	360 K	400 K	440 K
3000 kPa, x2 = 0.1744	556.31	–	–	–	–
5000 kPa, x2 = 0.1744	561.89	482.68	–	–	–
10000 kPa, x2 = 0.1744	573.48	508.23	419.87	–	–
10000 kPa, x2 = 0.3863	620.48	530.48	–	–	–
10000 kPa, x2 = 0.5837	680.55	547.46	–	–	–
10000 kPa, x2 = 0.7732	763.91	–	–	–	–
20000 kPa, x2 = 0.1744	592.16	539.43	481.41	–	–
20000 kPa, x2 = 0.3863	644.94	577.9	501.31	416.94	–
20000 kPa, x2 = 0.5837	713.25	623.7	518.21	–	–
20000 kPa, x2 = 0.7732	807.46	683.7	532.45	–	–
30000 kPa, x2 = 0.1744	606.51	560.67	513.49	463.97	–
30000 kPa, x2 = 0.3863	663.74	606.46	546.54	484.73	425.58
30000 kPa, x2 = 0.5837	737.38	663.4	584.42	504.63	–
30000 kPa, x2 = 0.7732	837.33	738.49	631.46	526.28	–
40000 kPa, x2 = 0.1744	619.31	577.4	535.86	493.75	453.4
40000 kPa, x2 = 0.3863	678.81	628.01	576.34	524.65	475.39
40000 kPa, x2 = 0.5837	756.53	691.1	624.74	558.9	498.14
40000 kPa, x2 = 0.7732	861.06	775.23	686.69	600.44	524.14
50000 kPa, x2 = 0.1744	629.89	591.36	553.69	515.97	480.3
50000 kPa, x2 = 0.3863	691.83	645.47	599.05	553.29	510.05
50000 kPa, x2 = 0.5837	772.63	713.18	654.15	596.39	543.19
50000 kPa, x2 = 0.7732	880.32	803.46	725.46	650.25	582.81
60000 kPa, x2 = 0.1744	639.83	603.47	568.6	533.68	501.53
60000 kPa, x2 = 0.3863	703.48	660.15	617.66	575.8	536.68
60000 kPa, x2 = 0.5837	786.68	731.74	677.69	625.2	577.1
60000 kPa, x2 = 0.7732	897.67	826.73	755.67	687.92	626.71
70000 kPa, x2 = 0.1744	648.12	613.78	581.28	548.87	518.95
70000 kPa, x2 = 0.3863	713.93	673.05	633.44	594.51	558.53
70000 kPa, x2 = 0.5837	799.31	747.63	697.37	648.89	604.68
70000 kPa, x2 = 0.7732	912.73	846.24	780.83	718.31	661.78
80000 kPa, x2 = 0.1744	656.23	623.2	592.36	561.96	533.91
80000 kPa, x2 = 0.3863	723.24	684.45	647.34	610.56	576.94
80000 kPa, x2 = 0.5837	810.6	761.45	714.31	668.81	627.72
80000 kPa, x2 = 0.7732	927.24	863.57	802.2	743.76	690.97
90000 kPa, x2 = 0.1744	663.51	631.77	602.5	573.37	546.96
90000 kPa, x2 = 0.3863	732.5	694.88	659.51	624.68	592.95
90000 kPa, x2 = 0.5837	821.14	773.99	729.21	686.29	647.49
90000 kPa, x2 = 0.7732	939.34	879.25	821	765.81	715.85
100000 kPa, x2 = 0.1744	670.12	639.8	611.43	583.87	558.7
100000 kPa, x2 = 0.3863	740.27	704.18	670.54	637.16	607.11
100000 kPa, x2 = 0.5837	830.57	785.61	742.72	701.68	664.74
100000 kPa, x2 = 0.7732	951.22	893.05	837.52	785.16	737.47
120000 kPa, x2 = 0.1744	682.47	654.22	627.94	601.92	578.72
120000 kPa, x2 = 0.3863	754.61	721.25	690.06	658.95	631.24
120000 kPa, x2 = 0.5837	847.84	806	766.21	728.37	694.36
120000 kPa, x2 = 0.7732	971.86	917.78	866.62	818.25	774.63
140000 kPa, x2 = 0.1744	693.54	666.67	642.06	617.62	595.88
140000 kPa, x2 = 0.3863	767.28	735.96	706.76	677.58	651.66
140000 kPa, x2 = 0.5837	862.96	824.18	786.28	750.66	719.21
140000 kPa, x2 = 0.7732	989.75	939.18	891.18	845.81	805.33
160000 kPa, x2 = 0.1744	703.41	678.11	654.39	631.49	610.94
160000 kPa, x2 = 0.3863	779.18	749.2	721.47	693.82	669.67
160000 kPa, x2 = 0.5837	876.77	839.79	803.84	770.18	740.68
160000 kPa, x2 = 0.7732	1006.14	958.02	912.47	869.72	831.52
180000 kPa, x2 = 0.1744	712.71	688.17	665.89	643.58	624.2
180000 kPa, x2 = 0.3863	789.73	761.05	734.92	708.41	685.33
180000 kPa, x2 = 0.5837	889	853.99	819.85	787.61	759.39
180000 kPa, x2 = 0.7732	1020.76	975.24	931.8	890.88	854.41
200000 kPa, x2 = 0.1744	720.96	697.95	676.04	654.96	636.19
200000 kPa, x2 = 0.3863	799.56	772.24	746.96	721.61	699.19
200000 kPa, x2 = 0.5837	900.92	866.84	833.79	803.17	776.34
200000 kPa, x2 = 0.7732	1034.57	990.64	948.91	909.94	875.02
